Measured values reported in patent publication US20120270237A9, “METHODS FOR THE IDENTIFICATION OF KINASE INTERACTING MOLECULES AND FOR THE PURIFICATION OF KINASE PROTEINS” (Cellzone AG, priority 2009, published 2012).

Legend:
Assay in all cases: Kinobeads competition binding, L-363 cell lysate
Design in all cases: endogenous in cells
Details in all cases: 10 μM free compound, L-363 lysate
[1] = biological target: PYK2 (Homo sapiens, UniProt Q14289)
Description: (§1) To one aliquot of cell lysate 10 μM of the free compound (FIG. 3, CZC31326) was added and allowed to bind to proteins in the lysate. Then the affinity matrix with the immobilized compound was added to capture proteins that were not interacting with the previously added free compound. Beads were separated from the lysate and bead bound proteins were eluted in SDS sample buffer and subsequently separated by SDS-Polyacrylamide gel electrophoresis (FIG. 8). Suitable gel bands were cut out and subjected to in-gel proteolytic digestion with trypsin. The second lysate aliquot was processed identically, however no free compound was added (DMSO solvent control). Peptides originating from samples 1 and 2 were labeled with iTRAQ reagents (iTRAQ 114 and iTRAQ 117) and the combined samples were analyzed with a nano-flow liquid chromatography system coupled online to a tandem mass spectrometer (LC-MS/MS) experiment followed by iTRAQ reporter ion quantification in the MS/MS spectra as described in Example 2.
(§2) For this experiment the human plasma cell leukaemia line L-363 was used (German Collection of Microorganisms and Cell Cultures, DSMZ number ACC49, Braunschweig, Germany). Cells were treated for three hours with 20 μM of the proteasome inhibitor MG132 (Z-Leu-Leu-Leu-al, Sigma C2211) prior to cell harvesting.

[2] = biological target: FER (Homo sapiens, UniProt P16591)
Chain of FER (P16591 whole entry): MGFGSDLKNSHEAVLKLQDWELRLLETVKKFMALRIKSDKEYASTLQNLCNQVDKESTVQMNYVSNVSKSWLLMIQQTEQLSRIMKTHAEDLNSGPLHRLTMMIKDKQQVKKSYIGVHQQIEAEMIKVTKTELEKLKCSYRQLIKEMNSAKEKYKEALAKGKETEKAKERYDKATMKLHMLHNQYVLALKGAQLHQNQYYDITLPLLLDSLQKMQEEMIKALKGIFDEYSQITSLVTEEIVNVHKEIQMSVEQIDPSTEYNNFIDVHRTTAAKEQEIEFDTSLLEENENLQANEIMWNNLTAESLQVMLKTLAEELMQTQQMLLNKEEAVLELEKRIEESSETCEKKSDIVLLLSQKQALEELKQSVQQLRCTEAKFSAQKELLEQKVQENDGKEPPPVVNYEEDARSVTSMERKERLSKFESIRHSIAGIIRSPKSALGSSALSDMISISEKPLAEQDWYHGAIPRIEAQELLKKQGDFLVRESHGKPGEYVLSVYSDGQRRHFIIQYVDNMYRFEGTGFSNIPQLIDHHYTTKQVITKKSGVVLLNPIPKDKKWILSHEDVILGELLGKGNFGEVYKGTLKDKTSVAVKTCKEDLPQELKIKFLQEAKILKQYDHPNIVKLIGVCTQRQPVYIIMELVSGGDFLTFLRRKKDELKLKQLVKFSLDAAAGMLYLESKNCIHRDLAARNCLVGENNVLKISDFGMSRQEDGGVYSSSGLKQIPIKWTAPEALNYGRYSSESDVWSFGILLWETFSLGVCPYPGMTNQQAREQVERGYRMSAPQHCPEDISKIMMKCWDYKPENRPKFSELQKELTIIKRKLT
Description: as §1, §2

[3] = biological target: GSK3B (Homo sapiens, UniProt P49841)
Chain of GSK3B (P49841 whole entry): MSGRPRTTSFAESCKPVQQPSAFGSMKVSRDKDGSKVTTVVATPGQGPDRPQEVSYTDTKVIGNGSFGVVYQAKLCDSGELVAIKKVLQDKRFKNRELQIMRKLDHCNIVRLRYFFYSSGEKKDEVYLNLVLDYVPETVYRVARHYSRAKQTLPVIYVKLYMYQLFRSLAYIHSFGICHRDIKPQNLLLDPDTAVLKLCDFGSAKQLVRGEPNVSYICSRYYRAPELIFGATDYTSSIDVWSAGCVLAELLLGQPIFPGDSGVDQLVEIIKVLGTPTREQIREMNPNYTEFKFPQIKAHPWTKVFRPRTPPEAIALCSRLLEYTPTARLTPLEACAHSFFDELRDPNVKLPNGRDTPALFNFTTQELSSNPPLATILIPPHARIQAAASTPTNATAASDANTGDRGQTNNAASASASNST
Description: as §1, §2

[4] = biological target: MST2 (Homo sapiens, UniProt Q13188)
Description: as §1, §2

[5] = biological target: MARK2 (Homo sapiens, UniProt Q7KZI7)
Chain of MARK2 (Q7KZI7 whole entry): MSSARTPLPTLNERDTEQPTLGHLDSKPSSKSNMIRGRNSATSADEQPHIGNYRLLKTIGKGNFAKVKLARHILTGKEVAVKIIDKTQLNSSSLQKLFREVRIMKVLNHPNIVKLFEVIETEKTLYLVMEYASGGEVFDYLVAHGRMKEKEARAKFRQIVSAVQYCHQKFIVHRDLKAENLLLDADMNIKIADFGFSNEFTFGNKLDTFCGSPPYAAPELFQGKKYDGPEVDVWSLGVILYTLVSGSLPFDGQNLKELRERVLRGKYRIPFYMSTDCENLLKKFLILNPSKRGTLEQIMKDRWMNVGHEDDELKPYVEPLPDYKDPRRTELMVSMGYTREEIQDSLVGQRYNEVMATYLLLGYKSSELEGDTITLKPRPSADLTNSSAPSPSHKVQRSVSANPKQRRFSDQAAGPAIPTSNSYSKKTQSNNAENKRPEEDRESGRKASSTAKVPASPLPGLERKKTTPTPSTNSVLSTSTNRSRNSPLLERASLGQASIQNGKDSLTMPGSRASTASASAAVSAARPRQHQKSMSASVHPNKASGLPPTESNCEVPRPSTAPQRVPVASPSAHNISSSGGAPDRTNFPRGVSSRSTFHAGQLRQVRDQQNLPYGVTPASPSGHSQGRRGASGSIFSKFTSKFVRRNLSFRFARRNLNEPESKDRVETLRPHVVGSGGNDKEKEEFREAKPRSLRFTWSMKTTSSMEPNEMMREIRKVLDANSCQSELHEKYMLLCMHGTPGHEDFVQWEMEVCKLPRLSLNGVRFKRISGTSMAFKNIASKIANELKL
Description: as §1, §2

[6] = biological target: ALK2 (Homo sapiens, UniProt Q04771)
Description: as §1, §2

[7] = biological target: HIPK2 (Homo sapiens, UniProt Q9H2X6)
Description: as §1, §2

[8] = biological target: YES (Homo sapiens, UniProt P07947)
Chain of YES (P07947 whole entry): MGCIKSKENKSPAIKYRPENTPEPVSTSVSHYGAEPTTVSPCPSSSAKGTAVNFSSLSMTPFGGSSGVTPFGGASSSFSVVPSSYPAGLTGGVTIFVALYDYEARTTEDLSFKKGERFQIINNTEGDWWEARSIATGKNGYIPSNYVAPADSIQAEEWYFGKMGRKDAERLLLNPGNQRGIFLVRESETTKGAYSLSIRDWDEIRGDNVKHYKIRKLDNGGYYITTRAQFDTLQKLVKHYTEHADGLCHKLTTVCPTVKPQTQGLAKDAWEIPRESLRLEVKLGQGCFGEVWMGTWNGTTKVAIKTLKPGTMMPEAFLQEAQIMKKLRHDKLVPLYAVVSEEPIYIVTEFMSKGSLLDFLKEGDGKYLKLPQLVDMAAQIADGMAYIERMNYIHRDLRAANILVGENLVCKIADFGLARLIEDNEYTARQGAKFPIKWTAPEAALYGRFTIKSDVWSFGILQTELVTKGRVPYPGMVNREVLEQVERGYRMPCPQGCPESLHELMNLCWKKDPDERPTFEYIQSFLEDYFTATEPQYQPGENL
Description: as §1, §2

[9] = biological target: LOK (Homo sapiens, UniProt O94804)
Chain of LOK (O94804 whole entry): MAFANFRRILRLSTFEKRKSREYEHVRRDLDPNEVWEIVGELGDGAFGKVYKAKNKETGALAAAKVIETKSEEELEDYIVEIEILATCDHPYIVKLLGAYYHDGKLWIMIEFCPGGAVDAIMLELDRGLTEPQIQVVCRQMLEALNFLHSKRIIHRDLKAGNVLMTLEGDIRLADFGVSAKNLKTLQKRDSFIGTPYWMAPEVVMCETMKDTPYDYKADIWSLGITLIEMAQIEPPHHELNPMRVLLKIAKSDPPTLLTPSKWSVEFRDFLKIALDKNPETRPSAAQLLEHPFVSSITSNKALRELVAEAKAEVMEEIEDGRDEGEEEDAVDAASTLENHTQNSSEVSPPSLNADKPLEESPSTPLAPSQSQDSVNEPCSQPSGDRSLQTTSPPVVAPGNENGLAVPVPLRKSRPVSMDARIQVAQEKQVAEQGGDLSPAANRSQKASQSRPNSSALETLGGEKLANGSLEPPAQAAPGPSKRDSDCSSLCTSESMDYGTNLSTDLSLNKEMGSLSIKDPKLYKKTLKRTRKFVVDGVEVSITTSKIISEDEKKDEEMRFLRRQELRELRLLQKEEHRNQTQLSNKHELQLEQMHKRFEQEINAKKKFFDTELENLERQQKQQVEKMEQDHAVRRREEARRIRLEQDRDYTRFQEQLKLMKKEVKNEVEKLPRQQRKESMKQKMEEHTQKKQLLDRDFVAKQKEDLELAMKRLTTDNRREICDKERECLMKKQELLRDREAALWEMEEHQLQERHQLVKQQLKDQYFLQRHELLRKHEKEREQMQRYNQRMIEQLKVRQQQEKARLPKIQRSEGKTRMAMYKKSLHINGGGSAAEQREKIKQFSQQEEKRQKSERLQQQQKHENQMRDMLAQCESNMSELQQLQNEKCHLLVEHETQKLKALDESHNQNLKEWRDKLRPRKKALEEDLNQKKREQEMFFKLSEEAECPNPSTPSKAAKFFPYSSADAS
Description: as §1, §2

[10] = biological target: MAP2K3 (Homo sapiens, UniProt P46734)
Chain of MAP2K3 (P46734 whole entry): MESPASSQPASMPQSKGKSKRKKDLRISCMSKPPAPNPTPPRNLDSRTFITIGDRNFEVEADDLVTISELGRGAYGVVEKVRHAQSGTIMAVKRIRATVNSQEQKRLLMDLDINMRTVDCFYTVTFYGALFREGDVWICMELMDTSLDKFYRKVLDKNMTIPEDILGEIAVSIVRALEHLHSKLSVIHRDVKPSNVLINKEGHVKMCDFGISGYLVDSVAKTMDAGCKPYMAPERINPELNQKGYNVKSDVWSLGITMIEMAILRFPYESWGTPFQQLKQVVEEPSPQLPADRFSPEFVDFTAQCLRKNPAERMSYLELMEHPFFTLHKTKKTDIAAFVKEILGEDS
Description: as §1, §2

[11] = biological target: T1, GAK (Homo sapiens, UniProt O14976)
T1 sequence (O14976 1-1311): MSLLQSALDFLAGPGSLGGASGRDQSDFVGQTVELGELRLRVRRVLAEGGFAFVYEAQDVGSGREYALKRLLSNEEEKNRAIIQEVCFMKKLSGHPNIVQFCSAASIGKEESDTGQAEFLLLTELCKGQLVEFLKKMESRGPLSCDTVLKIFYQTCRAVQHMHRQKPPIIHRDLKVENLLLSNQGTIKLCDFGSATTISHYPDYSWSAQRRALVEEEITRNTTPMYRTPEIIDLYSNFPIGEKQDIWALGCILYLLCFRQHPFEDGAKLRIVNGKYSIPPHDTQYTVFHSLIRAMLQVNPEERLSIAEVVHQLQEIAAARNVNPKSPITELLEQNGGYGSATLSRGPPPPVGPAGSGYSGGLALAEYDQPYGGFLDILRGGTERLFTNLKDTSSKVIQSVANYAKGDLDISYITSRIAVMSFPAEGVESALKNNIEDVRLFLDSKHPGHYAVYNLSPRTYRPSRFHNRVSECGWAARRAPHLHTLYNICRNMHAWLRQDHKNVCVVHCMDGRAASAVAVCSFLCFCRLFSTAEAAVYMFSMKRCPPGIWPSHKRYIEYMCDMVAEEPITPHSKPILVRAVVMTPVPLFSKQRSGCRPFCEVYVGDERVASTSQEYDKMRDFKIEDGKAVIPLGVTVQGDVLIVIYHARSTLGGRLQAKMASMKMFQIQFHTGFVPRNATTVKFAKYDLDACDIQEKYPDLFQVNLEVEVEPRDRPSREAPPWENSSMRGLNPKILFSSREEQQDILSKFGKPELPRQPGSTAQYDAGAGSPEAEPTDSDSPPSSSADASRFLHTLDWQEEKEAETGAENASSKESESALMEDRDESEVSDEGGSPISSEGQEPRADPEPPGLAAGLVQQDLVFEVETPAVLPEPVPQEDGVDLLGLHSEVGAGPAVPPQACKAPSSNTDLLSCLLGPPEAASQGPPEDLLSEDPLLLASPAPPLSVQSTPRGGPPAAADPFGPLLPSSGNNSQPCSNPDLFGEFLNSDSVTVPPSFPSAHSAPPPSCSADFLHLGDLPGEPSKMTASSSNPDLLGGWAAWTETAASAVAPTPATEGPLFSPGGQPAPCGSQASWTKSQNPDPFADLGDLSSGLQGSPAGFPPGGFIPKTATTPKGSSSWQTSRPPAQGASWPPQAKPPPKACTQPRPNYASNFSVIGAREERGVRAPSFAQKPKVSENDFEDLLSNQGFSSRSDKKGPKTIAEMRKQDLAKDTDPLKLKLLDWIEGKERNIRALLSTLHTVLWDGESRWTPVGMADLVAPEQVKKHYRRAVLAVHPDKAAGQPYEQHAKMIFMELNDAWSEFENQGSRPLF
Description: as §1, §2

[12] = biological target: T2, PHKg2 (Homo sapiens, UniProt P15735)
T2 sequence (P15735 1-406): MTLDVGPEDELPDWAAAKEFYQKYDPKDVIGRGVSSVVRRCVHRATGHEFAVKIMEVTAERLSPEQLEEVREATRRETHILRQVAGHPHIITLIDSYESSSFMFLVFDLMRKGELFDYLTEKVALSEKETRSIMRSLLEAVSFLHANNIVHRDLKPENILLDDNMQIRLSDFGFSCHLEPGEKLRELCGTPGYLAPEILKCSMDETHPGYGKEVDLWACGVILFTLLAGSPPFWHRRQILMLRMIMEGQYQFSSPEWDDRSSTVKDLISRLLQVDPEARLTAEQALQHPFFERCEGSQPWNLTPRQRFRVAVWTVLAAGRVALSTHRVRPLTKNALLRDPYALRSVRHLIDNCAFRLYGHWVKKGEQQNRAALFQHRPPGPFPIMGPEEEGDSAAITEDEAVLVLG
Description: as §1, §2

Chain of PYK2 (Q14289 whole entry): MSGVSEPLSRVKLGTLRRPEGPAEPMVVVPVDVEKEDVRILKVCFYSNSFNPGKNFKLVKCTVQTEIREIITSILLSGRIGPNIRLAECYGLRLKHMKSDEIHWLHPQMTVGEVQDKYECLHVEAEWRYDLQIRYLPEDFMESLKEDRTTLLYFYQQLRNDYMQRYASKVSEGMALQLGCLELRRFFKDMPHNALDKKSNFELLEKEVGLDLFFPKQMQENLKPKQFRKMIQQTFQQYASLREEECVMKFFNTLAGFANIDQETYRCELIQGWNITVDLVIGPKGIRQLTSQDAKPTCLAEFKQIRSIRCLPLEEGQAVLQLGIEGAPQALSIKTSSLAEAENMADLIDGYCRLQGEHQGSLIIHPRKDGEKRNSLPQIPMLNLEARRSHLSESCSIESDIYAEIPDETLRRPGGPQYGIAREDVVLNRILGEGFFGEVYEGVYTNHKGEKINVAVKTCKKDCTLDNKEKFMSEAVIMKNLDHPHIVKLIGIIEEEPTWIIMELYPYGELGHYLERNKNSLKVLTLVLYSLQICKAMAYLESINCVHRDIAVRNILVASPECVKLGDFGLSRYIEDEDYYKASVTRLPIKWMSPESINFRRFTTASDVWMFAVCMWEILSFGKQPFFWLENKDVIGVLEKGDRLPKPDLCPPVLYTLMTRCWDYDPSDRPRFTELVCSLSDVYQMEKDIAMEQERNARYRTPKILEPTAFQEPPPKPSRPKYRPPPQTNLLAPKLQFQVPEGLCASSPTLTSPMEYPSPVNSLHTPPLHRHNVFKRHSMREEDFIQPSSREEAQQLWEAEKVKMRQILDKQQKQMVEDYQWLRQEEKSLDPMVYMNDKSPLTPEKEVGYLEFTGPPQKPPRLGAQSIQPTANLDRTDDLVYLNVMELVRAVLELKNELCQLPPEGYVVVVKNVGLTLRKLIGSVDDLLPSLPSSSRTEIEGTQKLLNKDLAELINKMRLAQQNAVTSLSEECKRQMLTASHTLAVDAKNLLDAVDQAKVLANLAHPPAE

inhibition at 10 µM [1]: 96.1% | inhibition at 10 µM [2]: 97.8% | inhibition at 10 µM [3]: 94.6% | inhibition at 10 µM [4]: 98.2% | inhibition at 10 µM [5]: 97% | inhibition at 10 µM [6]: 95.7% | inhibition at 10 µM [7]: 95.6% | inhibition at 10 µM [8]: 89.6% | Competition % [9]: 86.9% | inhibition at 10 µM [10]: 93.9% | inhibition at 10 µM [11]: 98.2% | inhibition at 10 µM [12]: 94.1%
Structure (SMILES): CS(=O)(=O)Nc1ccccc1Nc1nc(Nc2cccc(OCCN)c2)ncc1Cl [CZC31326, N-(2-(2-(3-(2-aminoethoxy)phenylamino)-5-chloropyrimidin-4-ylamino)phenyl)methanesulfonamide]
